Read-outs that look alike come from different tables or passages of the source.
Experiments:
gastric secretion = test: Activity on gastric secretion "in vivo" (volume and total acidity of gastric juice after pylorus tieing, Shay); parameters: species or system male Wistar rats; details: for Total acidity gastric juice secretion / Volume gastric juice secretion / change in vivo at 20 mg/kg: 20 mg/kg oral; for change in vivo at 20 mg/kg / ED50: Rattus norvegicus, po; for ED50: per os, 1 hour before pilorus tieing, read-out: DE50 in rat calculated on total acidity (mEq/4 hours); for ability to reduce the gastric acid secretion (in words): volume and total acidity of gastric juice
Experimental: (§1) The preparations were a solution of the substances in 2.5% citric acid for the "in vitro" test and 5% citric acid for the "in vivo" test respectively. Citric acid was diluted in normal physiologic saline at neutral pH.
The ability of the compounds according to the present invention to inhibit the gastric secretion was studied "in vivo" both by evaluating the volume reduction of gastric juice, and by measuring the total acidity of same after administration of the substances under test according to the Takeda method (see the aforementioned literature).
To this end, tests have been made on male Wistar rats of an average weight of 200 g. The animals, 10 for each substance, were placed into individual cages provided with ground grating in order to avoid coprophagy, without food but with free access to water for 24 hours before test. […] Four hours later the animals were sacrificed and the gastric juice was collected, of which the volume expressed in ml and the total acidity expressed in mEq was measured. The gastric juice ([…] ) was titrated with 0.1N NaOH to pH 7 to determine the acid concentration. The total acidity was then calculated as the product of the total volume of gastric juice by the acid concentration.

in vivo = details: po; for LD50 at 360 h: mouse; for LD50: rat
Excerpt: The animals were kept under observation by checking mortality and possible pain signs for 15 days from start of test.

histamine H2 receptors = biological target: T1, histamine H2 receptors (Cavia porcellus, UniProt P47747); test: Antagonistic activity to the histamine H2 receptors "in vitro" on insulated atrium auricolas of Guinea pig heart; details: for inhibition at 10 µM / inhibition at 1 µM / inhibition at 0.1 µM: guinea pig, 0.5 h, read-out: Antagonizing activity to histamine H2 receptors; for inhibition at 10 µM: compound 1·10^-5 M/L; for inhibition at 1 µM: compound 1·10^-6 M/L; for inhibition at 0.1 µM: compound 1·10^-7 M/L; for antagonistic action to the histamine H2 receptors (in words): in vitro
T1 construct: tests on insulated atrium auricolas of Guinea pig heart; from tissue; host or cells: isolated guinea pig heart atrium
T1 sequence (P47747 whole entry): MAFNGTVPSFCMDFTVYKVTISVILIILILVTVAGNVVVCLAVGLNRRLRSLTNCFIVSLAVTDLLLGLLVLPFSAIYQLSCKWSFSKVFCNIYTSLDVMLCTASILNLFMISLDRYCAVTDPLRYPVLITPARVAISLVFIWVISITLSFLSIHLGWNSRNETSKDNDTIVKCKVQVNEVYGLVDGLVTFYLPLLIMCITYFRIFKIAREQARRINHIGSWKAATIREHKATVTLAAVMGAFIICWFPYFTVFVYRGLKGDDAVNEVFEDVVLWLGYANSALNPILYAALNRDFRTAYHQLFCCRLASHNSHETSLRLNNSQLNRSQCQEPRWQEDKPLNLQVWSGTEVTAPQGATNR
Experimental: as §1
This activity was evaluated "in vitro" by carrying out tests on insulated atrium auricolas of Guinea pig heart. […] Metering was carried out by placing the preparation into a vessel containing a Ringer-Locke solution wherein pure oxygen was bubbling, at a temperature of 37° C. A response of the organ "in vitro" was first established at cumulative histamine doses of 2.5.10^-7, 5.10^-7, 10^-6, 5.10^-6, 10^-5 M/L. After obtaining two constant lines with histamine at a time interval of one hour from one another, the substances under test were added to the bath and after a 30 minutes contact with the preparation, a new histamine response line in the presence of the substance under test was drawn. The activity was tested at various concentrations of the new compounds (10^-5, 10^-6, 10^-7 and in one case 10^-8 M/L).

[1] = 6 hours before pilorus tieing, read-out: Total acidity gastric juice secretion, Variation %
[2] = 6 hours before pilorus tieing, read-out: Volume gastric juice secretion, Variation %
[3] = 12 hours before pilorus tieing, read-out: Total acidity gastric juice secretion, Variation %
[4] = 12 hours before pilorus tieing, read-out: Volume gastric juice secretion, Variation %
[5] = 24 hours before pilorus tieing, read-out: Total acidity gastric juice secretion, Variation %
[6] = 24 hours before pilorus tieing, read-out: Volume gastric juice secretion, Variation %
[7] = 36 hours before pilorus tieing, read-out: Total acidity gastric juice secretion, Variation %
[8] = 36 hours before pilorus tieing, read-out: Volume gastric juice secretion, Variation %

Row | Structure (SMILES) | Total acidity gastric juice secretion (gastric secretion; 6 hours before pilorus tieing) | Volume gastric juice secretion (gastric secretion; 6 hours before pilorus tieing) | Total acidity gastric juice secretion (gastric secretion; 12 hours before pilorus tieing) | Volume gastric juice secretion (gastric secretion; 12 hours before pilorus tieing) | Total acidity gastric juice secretion (gastric secretion; 24 hours before pilorus tieing) | Volume gastric juice secretion (gastric secretion; 24 hours before pilorus tieing) | Total acidity gastric juice secretion (gastric secretion; 36 hours before pilorus tieing) | Volume gastric juice secretion (gastric secretion; 36 hours before pilorus tieing) | change in vivo at 20 mg/kg (gastric secretion; [1]) [%] | change in vivo at 20 mg/kg (gastric secretion; [2]) [%] | change in vivo at 20 mg/kg (gastric secretion; [3]) [%] | change in vivo at 20 mg/kg (gastric secretion; [4]) [%] | change in vivo at 20 mg/kg (gastric secretion; [5]) [%] | change in vivo at 20 mg/kg (gastric secretion; [6]) [%] | change in vivo at 20 mg/kg (gastric secretion; [7]) [%] | change in vivo at 20 mg/kg (gastric secretion; [8]) [%] | ED50 (gastric secretion) [mg/kg] | ability to reduce the gastric acid secretion (in words) (gastric secretion) | LD50 at 360 h (in vivo) [mg/kg] | LD50 (in vivo) [mg/kg] | also measured
1 | CN(C)Cc1ccc(CSCCNc2nc(-c3ccccc3)cs2)o1 [Example No. 3, 2-(2-(((5-(dimethylamino)methyl-2-furanyl)methyl)thio)ethyl)-amino-4-phenylthiazole] | 0,07 mEq/4 hours | 4,0 ml/4 hours | 0,10 mEq/4 hours | 4,1 ml/4 hours | 0,12 mEq/4 hours | 4,8 ml/4 hours | 0,15 mEq/4 hours | 5,0 ml/4 hours | -59 | -24 | -33 | -20 | -29 | -14 | -6 | -11 | 2.2 | interesting ability | 550 | 900 | inhibition at 10 µM (histamine H2 receptors; histamine 1·10^-5 M/L): 95%; inhibition at 10 µM (histamine H2 receptors; histamine 1·10^-6 M/L): 100%; inhibition at 10 µM (histamine H2 receptors; histamine 2,5·10^-7 M/L): 100%; inhibition at 10 µM (histamine H2 receptors; histamine 5·10^-6 M/L): 100%; inhibition at 10 µM (histamine H2 receptors; histamine 5·10^-7 M/L): 100%; inhibition at 1 µM (histamine H2 receptors; histamine 1·10^-5 M/L): 52%; inhibition at 1 µM (histamine H2 receptors; histamine 1·10^-6 M/L): 85%; inhibition at 1 µM (histamine H2 receptors; histamine 2,5·10^-7 M/L): 100%; inhibition at 1 µM (histamine H2 receptors; histamine 5·10^-6 M/L): 70%; inhibition at 1 µM (histamine H2 receptors; histamine 5·10^-7 M/L): 100%; inhibition at 0.1 µM (histamine H2 receptors; histamine 1·10^-5 M/L): 20%; inhibition at 0.1 µM (histamine H2 receptors; histamine 1·10^-6 M/L): 50%; inhibition at 0.1 µM (histamine H2 receptors; histamine 2,5·10^-7 M/L): 85%; inhibition at 0.1 µM (histamine H2 receptors; histamine 5·10^-6 M/L): 30%; inhibition at 0.1 µM (histamine H2 receptors; histamine 5·10^-7 M/L): 70%; antagonistic action to the histamine H2 receptors (in words) (histamine H2 receptors): interesting ability
2 | CN(C)Cc1ccc(CSCCNc2nc(-c3ccc(Oc4ccccc4)cc3)cs2)o1 [Example No. 13, 2-(2-(((5-(dimethylamino)methyl-2-furanyl)methyl)thio)ethyl)amino-4-(4-phenoxy)phenyl-thiazole] | 0,09 mEq/4 hours | 3,9 ml/4 hours | 0,09 mEq/4 hours | 3,9 ml/4 hours | 0,13 mEq/4 hours | 4,7 ml/4 hours | 0,15 mEq/4 hours | 5,1 ml/4 hours | -47 | -26 | -40 | -23 | -23 | -16 | -6 | -9 | 2.6 | interesting ability | 3000 | > 3000 | inhibition at 10 µM (histamine H2 receptors; histamine 1·10^-5 M/L): 90%; inhibition at 10 µM (histamine H2 receptors; histamine 1·10^-6 M/L): 95%; inhibition at 10 µM (histamine H2 receptors; histamine 2,5·10^-7 M/L): 100%; inhibition at 10 µM (histamine H2 receptors; histamine 5·10^-6 M/L): 90%; inhibition at 10 µM (histamine H2 receptors; histamine 5·10^-7 M/L): 100%; inhibition at 1 µM (histamine H2 receptors; histamine 1·10^-5 M/L): 38%; inhibition at 1 µM (histamine H2 receptors; histamine 1·10^-6 M/L): 80%; inhibition at 1 µM (histamine H2 receptors; histamine 2,5·10^-7 M/L): 90%; inhibition at 1 µM (histamine H2 receptors; histamine 5·10^-6 M/L): 65%; inhibition at 1 µM (histamine H2 receptors; histamine 5·10^-7 M/L): 90%; inhibition at 0.1 µM (histamine H2 receptors; histamine 1·10^-5 M/L): 40%; inhibition at 0.1 µM (histamine H2 receptors; histamine 1·10^-6 M/L): 50%; inhibition at 0.1 µM (histamine H2 receptors; histamine 2,5·10^-7 M/L): 90%; inhibition at 0.1 µM (histamine H2 receptors; histamine 5·10^-6 M/L): 30%; inhibition at 0.1 µM (histamine H2 receptors; histamine 5·10^-7 M/L): 70%; antagonistic action to the histamine H2 receptors (in words) (histamine H2 receptors): interesting ability
3 | CN(C)Cc1ccc(CSCCNc2nc(C=Cc3ccccc3)cs2)o1 [Example No. 4, 2-(2-(((5-(dimethylamino)methyl-2-furanyl)methyl)thio)ethyl)amino-4-styryl-thiazole] | 0,09 mEq/4 hours | 3,9 ml/4 hours | 0,08 mEq/4 hours | 4,0 ml/4 hours | 0,14 mEq/4 hours | 4,9 ml/4 hours | 0,14 mEq/4 hours | 5,3 ml/4 hours | -47 | -26 | -47 | -21 | -18 | -13 | -12 | -5 | 3.2 | interesting ability | 2900 | 3000 | inhibition at 10 µM (histamine H2 receptors; histamine 1·10^-5 M/L): 93%; inhibition at 10 µM (histamine H2 receptors; histamine 1·10^-6 M/L): 100%; inhibition at 10 µM (histamine H2 receptors; histamine 2,5·10^-7 M/L): 100%; inhibition at 10 µM (histamine H2 receptors; histamine 5·10^-6 M/L): 100%; inhibition at 10 µM (histamine H2 receptors; histamine 5·10^-7 M/L): 100%; inhibition at 1 µM (histamine H2 receptors; histamine 1·10^-5 M/L): 38%; inhibition at 1 µM (histamine H2 receptors; histamine 1·10^-6 M/L): 70%; inhibition at 1 µM (histamine H2 receptors; histamine 2,5·10^-7 M/L): 100%; inhibition at 1 µM (histamine H2 receptors; histamine 5·10^-6 M/L): 60%; inhibition at 1 µM (histamine H2 receptors; histamine 5·10^-7 M/L): 100%; inhibition at 0.1 µM (histamine H2 receptors; histamine 1·10^-5 M/L): 20%; inhibition at 0.1 µM (histamine H2 receptors; histamine 1·10^-6 M/L): 45%; inhibition at 0.1 µM (histamine H2 receptors; histamine 2,5·10^-7 M/L): 90%; inhibition at 0.1 µM (histamine H2 receptors; histamine 5·10^-6 M/L): 35%; inhibition at 0.1 µM (histamine H2 receptors; histamine 5·10^-7 M/L): 70%; antagonistic action to the histamine H2 receptors (in words) (histamine H2 receptors): interesting ability
4 | CN(C)Cc1ccc(CSCCNC(=S)NC(=O)c2ccccc2)o1 [Example No. 1, N-benzoyl-N'-(2-(((5-(dimethylamino)methyl-2-furanyl)methyl)-thio)ethyl)-thiourea] | 0,08 mEq/4 hours | 4,1 ml/4 hours | 0,09 mEq/4 hours | 4,0 ml/4 hours | 0,13 mEq/4 hours | 5,0 ml/4 hours | 0,14 mEq/4 hours | 5,2 ml/4 hours | -53 | -23 | -40 | -21 | -23 | -11 | -12 | -7 | 3.4 | interesting ability | 750 | 1000 | inhibition at 10 µM (histamine H2 receptors; histamine 1·10^-5 M/L): 100%; inhibition at 10 µM (histamine H2 receptors; histamine 1·10^-6 M/L): 100%; inhibition at 10 µM (histamine H2 receptors; histamine 2,5·10^-7 M/L): 100%; inhibition at 10 µM (histamine H2 receptors; histamine 5·10^-6 M/L): 100%; inhibition at 10 µM (histamine H2 receptors; histamine 5·10^-7 M/L): 100%; inhibition at 1 µM (histamine H2 receptors; histamine 1·10^-5 M/L): 50%; inhibition at 1 µM (histamine H2 receptors; histamine 1·10^-6 M/L): 80%; inhibition at 1 µM (histamine H2 receptors; histamine 2,5·10^-7 M/L): 100%; inhibition at 1 µM (histamine H2 receptors; histamine 5·10^-6 M/L): 60%; inhibition at 1 µM (histamine H2 receptors; histamine 5·10^-7 M/L): 90%; inhibition at 0.1 µM (histamine H2 receptors; histamine 1·10^-5 M/L): 20%; inhibition at 0.1 µM (histamine H2 receptors; histamine 1·10^-6 M/L): 65%; inhibition at 0.1 µM (histamine H2 receptors; histamine 2,5·10^-7 M/L): 90%; inhibition at 0.1 µM (histamine H2 receptors; histamine 5·10^-6 M/L): 35%; inhibition at 0.1 µM (histamine H2 receptors; histamine 5·10^-7 M/L): 85%; antagonistic action to the histamine H2 receptors (in words) (histamine H2 receptors): interesting ability
